From patent publication EP4722207A1, “OXOISOINDOLINYL-SUBSTITUTED TETRAHYDROPYRIMIDINEDIONE DERIVATIVE AND USE THEREOF” (Gluetacs Therapeutics (Shanghai) Co., Ltd., priority 2023, dated 2024)

Legend:
[1] = molecular target: T1, WEE1 (Homo sapiens, UniProt P30291+Q96SW2); assay: Western-blot assay, substrate protein degradation in hPBMCs: WEE1; assay type: cell-based; settings: compounds at 50 nM and 500 nM, 24 hours
T1 construct: effects of the compounds of the present disclosure on the expression of target proteins in cells; endogenous in cells; host or cells: human PBMCs (hPBMCs)

[2] = molecular target: T2, IKZF3 (Homo sapiens, UniProt Q96SW2+Q9UKT9); assay: Western-blot assay, substrate protein degradation in hPBMCs: IKZF3; assay type: cell-based; settings: compounds at 50 nM and 500 nM, 24 hours
T2 construct: effects of the compounds of the present disclosure on the expression of target proteins in cells; endogenous in cells; host or cells: human PBMCs (hPBMCs)

[3] = test system: MV-4-11; assay: Cell viability assay (CellTiter-Meiluncell Luminescent), tumor cell proliferation, MV-4-11; settings: Homo sapiens, MV4-11, 96 h, read-out: inhibitory activity (IC50, nM) against tumor cells proliferation, MV-4-11
[4] = molecular target: T3, CK1α (Homo sapiens, UniProt P48729+Q96SW2); assay: Western-blot assay, substrate protein degradation in hPBMCs: CK1α; assay type: cell-based; settings: compounds at 50 nM and 500 nM, 24 hours
T3 construct: effects of the compounds of the present disclosure on the expression of target proteins in cells; endogenous in cells; host or cells: human PBMCs (hPBMCs)

[5] = molecular target: T4, IKZF2 (Homo sapiens, UniProt Q96SW2+Q9UKS7); assay: Western-blot assay, substrate protein degradation in hPBMCs: IKZF2; assay type: cell-based; settings: compounds at 50 nM and 500 nM, 24 hours
T4 construct: effects of the compounds of the present disclosure on the expression of target proteins in cells; endogenous in cells; host or cells: human PBMCs (hPBMCs)

[6] = molecular target: T5, IKZF1 (Homo sapiens, UniProt Q13422+Q96SW2); assay: Western-blot assay, substrate protein degradation in hPBMCs: IKZF1; assay type: cell-based; settings: compounds at 50 nM and 500 nM, 24 hours
T5 construct: effects of the compounds of the present disclosure on the expression of target proteins in cells; endogenous in cells; host or cells: human PBMCs (hPBMCs)

[7] = molecular target: T6, GSPT1 (Homo sapiens, UniProt P15170+Q96SW2); assay: Western-blot assay, substrate protein degradation in hPBMCs: GSPT1; assay type: cell-based; settings: compounds at 50 nM and 500 nM, 24 hours
T6 construct: effects of the compounds of the present disclosure on the expression of target proteins in cells; endogenous in cells; host or cells: human PBMCs (hPBMCs)
T6 sequence (P15170 whole entry): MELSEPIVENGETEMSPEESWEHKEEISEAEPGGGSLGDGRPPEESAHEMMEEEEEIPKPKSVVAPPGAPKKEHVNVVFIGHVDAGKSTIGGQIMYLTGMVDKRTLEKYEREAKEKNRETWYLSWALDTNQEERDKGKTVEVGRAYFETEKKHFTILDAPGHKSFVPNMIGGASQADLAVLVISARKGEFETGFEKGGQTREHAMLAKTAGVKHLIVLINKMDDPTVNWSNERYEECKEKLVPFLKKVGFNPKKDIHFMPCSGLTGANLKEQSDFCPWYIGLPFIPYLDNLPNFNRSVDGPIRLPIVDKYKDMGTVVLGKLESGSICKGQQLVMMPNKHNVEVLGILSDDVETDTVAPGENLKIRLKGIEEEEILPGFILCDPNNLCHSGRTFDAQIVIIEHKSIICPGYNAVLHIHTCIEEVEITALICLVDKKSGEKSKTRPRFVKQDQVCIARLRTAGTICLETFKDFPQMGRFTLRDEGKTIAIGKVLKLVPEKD
T6 sequence (Q96SW2 whole entry): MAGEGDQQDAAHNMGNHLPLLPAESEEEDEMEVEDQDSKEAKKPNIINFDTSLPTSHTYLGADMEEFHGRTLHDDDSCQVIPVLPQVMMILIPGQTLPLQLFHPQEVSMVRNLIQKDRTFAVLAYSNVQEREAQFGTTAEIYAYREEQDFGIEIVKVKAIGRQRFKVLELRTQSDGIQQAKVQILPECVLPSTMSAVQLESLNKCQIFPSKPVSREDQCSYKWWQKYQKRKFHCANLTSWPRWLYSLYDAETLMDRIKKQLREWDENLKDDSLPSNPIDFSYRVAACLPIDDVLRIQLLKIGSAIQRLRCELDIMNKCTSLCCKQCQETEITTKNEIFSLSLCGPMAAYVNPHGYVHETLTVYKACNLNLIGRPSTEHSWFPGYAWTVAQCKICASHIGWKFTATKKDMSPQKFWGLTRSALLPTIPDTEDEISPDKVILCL
T6 sequence (Q16531 whole entry partner): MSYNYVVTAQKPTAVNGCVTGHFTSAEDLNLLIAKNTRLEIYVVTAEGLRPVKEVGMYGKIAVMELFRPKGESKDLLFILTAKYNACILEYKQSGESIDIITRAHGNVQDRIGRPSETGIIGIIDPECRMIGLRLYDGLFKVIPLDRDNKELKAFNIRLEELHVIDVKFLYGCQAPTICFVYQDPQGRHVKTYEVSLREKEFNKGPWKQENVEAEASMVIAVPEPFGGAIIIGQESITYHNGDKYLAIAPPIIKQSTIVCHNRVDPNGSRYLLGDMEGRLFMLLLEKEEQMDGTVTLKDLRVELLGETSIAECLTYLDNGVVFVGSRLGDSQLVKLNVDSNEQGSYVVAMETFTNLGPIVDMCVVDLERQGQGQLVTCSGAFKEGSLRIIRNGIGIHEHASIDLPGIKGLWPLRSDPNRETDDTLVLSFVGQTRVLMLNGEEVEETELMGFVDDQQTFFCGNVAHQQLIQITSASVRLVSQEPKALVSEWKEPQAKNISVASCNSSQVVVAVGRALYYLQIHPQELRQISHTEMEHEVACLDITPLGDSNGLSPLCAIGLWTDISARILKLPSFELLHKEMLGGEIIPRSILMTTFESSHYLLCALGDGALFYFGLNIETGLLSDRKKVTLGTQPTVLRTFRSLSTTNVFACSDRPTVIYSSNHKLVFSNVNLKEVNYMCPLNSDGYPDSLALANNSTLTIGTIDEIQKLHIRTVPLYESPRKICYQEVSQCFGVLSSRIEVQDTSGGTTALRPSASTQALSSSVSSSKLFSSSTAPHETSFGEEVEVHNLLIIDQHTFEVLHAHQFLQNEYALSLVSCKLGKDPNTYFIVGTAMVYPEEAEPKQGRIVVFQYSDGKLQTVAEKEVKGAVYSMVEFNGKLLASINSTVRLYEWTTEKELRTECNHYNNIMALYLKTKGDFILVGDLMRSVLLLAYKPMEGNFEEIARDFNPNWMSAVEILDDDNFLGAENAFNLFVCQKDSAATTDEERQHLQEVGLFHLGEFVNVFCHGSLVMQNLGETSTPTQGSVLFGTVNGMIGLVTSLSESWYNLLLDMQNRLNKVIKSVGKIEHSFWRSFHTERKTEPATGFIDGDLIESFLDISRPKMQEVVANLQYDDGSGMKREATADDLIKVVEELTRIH

T2 sequence (Q9UKT9 whole entry): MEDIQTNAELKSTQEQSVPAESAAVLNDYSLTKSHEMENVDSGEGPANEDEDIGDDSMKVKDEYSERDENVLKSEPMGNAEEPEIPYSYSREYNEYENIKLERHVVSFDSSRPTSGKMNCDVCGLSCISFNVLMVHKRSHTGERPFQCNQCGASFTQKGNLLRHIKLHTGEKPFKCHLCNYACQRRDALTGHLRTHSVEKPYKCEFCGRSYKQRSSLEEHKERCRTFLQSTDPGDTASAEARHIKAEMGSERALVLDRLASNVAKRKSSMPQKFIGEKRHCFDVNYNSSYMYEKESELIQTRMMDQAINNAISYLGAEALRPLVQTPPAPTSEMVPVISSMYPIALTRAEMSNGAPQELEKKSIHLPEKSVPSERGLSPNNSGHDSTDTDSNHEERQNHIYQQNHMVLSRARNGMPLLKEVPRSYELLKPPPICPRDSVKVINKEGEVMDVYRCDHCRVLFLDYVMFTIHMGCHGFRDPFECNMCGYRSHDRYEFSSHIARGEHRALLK
T2 sequence (Q96SW2 whole entry): as the sequence (Q96SW2 whole entry) above
T2 sequence (Q16531 whole entry partner): as the sequence (Q16531 whole entry partner) above
T4 sequence (Q9UKS7 whole entry): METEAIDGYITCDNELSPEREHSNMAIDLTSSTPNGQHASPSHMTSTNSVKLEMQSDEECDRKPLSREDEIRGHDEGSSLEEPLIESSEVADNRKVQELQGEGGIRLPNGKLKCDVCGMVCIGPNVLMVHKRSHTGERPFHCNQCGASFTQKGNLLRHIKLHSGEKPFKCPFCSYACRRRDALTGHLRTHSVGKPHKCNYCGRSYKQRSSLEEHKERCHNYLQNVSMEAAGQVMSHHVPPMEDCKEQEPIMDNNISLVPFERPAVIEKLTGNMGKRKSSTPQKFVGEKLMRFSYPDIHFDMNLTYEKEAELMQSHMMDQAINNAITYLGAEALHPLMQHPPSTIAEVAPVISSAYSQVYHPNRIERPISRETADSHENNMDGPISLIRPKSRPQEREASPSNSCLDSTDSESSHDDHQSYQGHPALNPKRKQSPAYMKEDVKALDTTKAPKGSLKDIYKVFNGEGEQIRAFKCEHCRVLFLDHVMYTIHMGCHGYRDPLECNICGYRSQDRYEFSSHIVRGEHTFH
T4 sequence (Q96SW2 whole entry): as the sequence (Q96SW2 whole entry) above
T4 sequence (Q16531 whole entry partner): as the sequence (Q16531 whole entry partner) above
T1 sequence (P30291 whole entry): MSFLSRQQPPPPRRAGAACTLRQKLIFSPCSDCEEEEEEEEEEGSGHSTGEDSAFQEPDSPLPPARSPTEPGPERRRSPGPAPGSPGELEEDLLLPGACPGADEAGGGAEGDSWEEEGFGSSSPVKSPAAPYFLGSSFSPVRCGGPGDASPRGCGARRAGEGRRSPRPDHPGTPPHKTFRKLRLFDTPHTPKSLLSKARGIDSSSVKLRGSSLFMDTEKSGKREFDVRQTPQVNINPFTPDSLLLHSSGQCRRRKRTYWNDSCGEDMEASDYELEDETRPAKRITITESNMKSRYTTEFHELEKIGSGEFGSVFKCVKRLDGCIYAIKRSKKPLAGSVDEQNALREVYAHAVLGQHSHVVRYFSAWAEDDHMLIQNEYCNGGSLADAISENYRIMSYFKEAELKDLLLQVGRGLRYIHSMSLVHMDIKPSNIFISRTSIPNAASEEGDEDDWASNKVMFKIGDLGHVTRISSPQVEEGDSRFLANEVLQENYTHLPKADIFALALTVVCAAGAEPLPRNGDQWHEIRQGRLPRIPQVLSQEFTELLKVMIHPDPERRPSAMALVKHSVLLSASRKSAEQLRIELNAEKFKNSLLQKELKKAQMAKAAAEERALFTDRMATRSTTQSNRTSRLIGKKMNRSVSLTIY
T1 sequence (Q96SW2 whole entry): as the sequence (Q96SW2 whole entry) above
T1 sequence (Q16531 whole entry partner): as the sequence (Q16531 whole entry partner) above
T5 sequence (Q13422 whole entry): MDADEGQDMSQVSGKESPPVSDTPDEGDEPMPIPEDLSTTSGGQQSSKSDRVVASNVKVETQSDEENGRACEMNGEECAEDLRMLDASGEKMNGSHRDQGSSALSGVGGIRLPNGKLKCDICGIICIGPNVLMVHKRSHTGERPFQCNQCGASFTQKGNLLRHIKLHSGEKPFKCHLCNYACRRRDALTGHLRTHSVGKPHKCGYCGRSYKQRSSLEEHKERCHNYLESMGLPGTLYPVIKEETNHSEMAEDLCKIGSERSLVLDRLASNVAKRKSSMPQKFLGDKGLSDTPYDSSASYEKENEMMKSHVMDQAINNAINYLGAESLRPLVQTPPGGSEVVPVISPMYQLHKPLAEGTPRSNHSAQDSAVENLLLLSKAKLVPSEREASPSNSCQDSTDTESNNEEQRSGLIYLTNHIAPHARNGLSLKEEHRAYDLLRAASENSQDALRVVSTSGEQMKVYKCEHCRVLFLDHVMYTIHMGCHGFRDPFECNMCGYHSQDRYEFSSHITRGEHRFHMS
T5 sequence (Q96SW2 whole entry): as the sequence (Q96SW2 whole entry) above
T5 sequence (Q16531 whole entry partner): as the sequence (Q16531 whole entry partner) above

| SMILES | WEE1 substrate protein remaining % [1] | IKZF3 substrate protein remaining % [2] | IC50 [3] | CK1α substrate protein remaining % [4] | IKZF2 substrate protein remaining % [5] | IKZF1 substrate protein remaining % [6] | GSPT1 substrate protein remaining % [7] |
| --- | --- | --- | --- | --- | --- | --- | --- |
| COc1cccc(N2CCN(Cc3ccc4c(c3)CN(N3CCC(=O)NC3=O)C4=O)CC2)c1 [GT-06699, 1-(5-((4-(3-methoxyphenyl)piperazin-1-yl)methyl)-1-oxoisoindolin-2-yl)dihydropyrimidine-2,4(1H,3H)-dione] | B ("B" is defined as 80%< substrate protein remaining %≤ 100%) | B ("B" is defined as 80%< substrate protein remaining %≤ 100%) | 100 to 300 nM | B ("B" is defined as 80%< substrate protein remaining %≤ 100%) | B ("B" is defined as 80%< substrate protein remaining %≤ 100%) | B ("B" is defined as 80%< substrate protein remaining %≤ 100%) | A ("A" is defined as 0% ≤ substrate protein remaining % ≤ 80%) |
| O=C1CCN(N2Cc3cc(CN4CCN(c5ccc(F)cc5)CC4)ccc3C2=O)C(=O)N1 [GT-06702, 1-(5-((4-(4-fluorophenyl)piperazin-1-yl)methyl)-1-oxoisoindolin-2-yl)dihydropyrimidine-2,4(1H,3H)-dione] | B ("B" is defined as 80%< substrate protein remaining %≤ 100%) | B ("B" is defined as 80%< substrate protein remaining %≤ 100%) | 500 to 1000 nM | A ("A" is defined as 0% ≤ substrate protein remaining % ≤ 80%) | B ("B" is defined as 80%< substrate protein remaining %≤ 100%) | B ("B" is defined as 80%< substrate protein remaining %≤ 100%) | A ("A" is defined as 0% ≤ substrate protein remaining % ≤ 80%) |
| O=C1CCN(N2Cc3cc(CN4CCN(c5ccccc5Cl)CC4)ccc3C2=O)C(=O)N1 [GT-06703, 1-(5-((4-(2-chlorophenyl)piperazin-1-yl)methyl)-1-oxoisoindolin-2-yl)dihydropyrimidine-2,4(1H,3H)-dione] | B ("B" is defined as 80%< substrate protein remaining %≤ 100%) | B ("B" is defined as 80%< substrate protein remaining %≤ 100%) | 500 to 1000 nM | A ("A" is defined as 0% ≤ substrate protein remaining % ≤ 80%) | B ("B" is defined as 80%< substrate protein remaining %≤ 100%) | B ("B" is defined as 80%< substrate protein remaining %≤ 100%) | A ("A" is defined as 0% ≤ substrate protein remaining % ≤ 80%) |
| O=C1CCN(N2Cc3cc(CN4CCN(c5ccc(Cl)cc5)CC4)ccc3C2=O)C(=O)N1 [GT-06765, 1-(5-((4-(4-chlorophenyl)piperazin-1-yl)methyl)-1-oxoisoindolin-2-yl)dihydropyrimidine-2,4(1H,3H)-dione] | B ("B" is defined as 80%< substrate protein remaining %≤ 100%) | B ("B" is defined as 80%< substrate protein remaining %≤ 100%) | 500 to 1000 nM | A ("A" is defined as 0% ≤ substrate protein remaining % ≤ 80%) | B ("B" is defined as 80%< substrate protein remaining %≤ 100%) | B ("B" is defined as 80%< substrate protein remaining %≤ 100%) | B ("B" is defined as 80%< substrate protein remaining %≤ 100%) |
